In ChEMBL document CHEMBL1201862, “PubChem BioAssay data set” (2004):
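Interpolation was linear, between the two tested concentrations surrounding the appropriate level; five concentrations were tested over 48 hours in 96-well plates. GI50 is the concentration that inhibits growth by half.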 The source made the active and inactive calls. Cut-off read from the data, not from the text of the source: active = GI50 up to about 1.1 µM and inactive = higher.

Tests used:
Experiment in all cases: NCI tumour cell line growth inhibition, 48 h
DLD-1 = tested on: DLD-1
LXFL 529 = tested on: LXFL 529
XF498 = tested on: XF498
M19-MEL = tested on: M19-MEL
RXF 631 = tested on: RXF 631
KM-20L2 = tested on: KM-20L2
HOP-18 = tested on: HOP-18

Row | Compound | GI50 (DLD-1) | GI50 (LXFL 529) | GI50 (XF498) | GI50 (M19-MEL) | GI50 (RXF 631) | GI50 (KM-20L2) | GI50 (HOP-18)
1 | Clc1ccc(OCc2nnc3n2N=C(c2ccccc2)CS3)c(Cl)c1 | 7.26 µM (inactive) | 5.6 µM (inactive) | > 100 µM (inactive) | > 100 µM (inactive) |  |  | 
2 | COC(=O)C(Br)C1CCc2ccccc21 (stereo not given) | > 100 µM (inactive) | > 100 µM (inactive) |  | > 100 µM (inactive) | > 100 µM (inactive) | > 100 µM (inactive) | 65.3 µM (inactive)
3 | CC(=O)c1ccccc1NC(=O)C(=O)C(C(=O)c1ccccc1-c1ccccc1)C1OC(=O)c2ccccc21 (stereo not given) | 23.1 µM (inactive) | 15.5 µM (inactive) | 11.3 µM (inactive) | 17.2 µM (inactive) | 50.6 µM (inactive) | 26.6 µM (inactive) | 15.2 µM (inactive)
4 | N#CCC(=O)Nc1cccc(C(F)(F)F)c1 | > 100 µM (inactive) | > 100 µM (inactive) | > 100 µM (inactive) | > 100 µM (inactive) | > 100 µM (inactive) | > 100 µM (inactive) | 29.2 µM (inactive)
5 | CC(=O)C1=NN(c2ccccc2)C2(S1)SC(c1ccccc1)(c1ccccc1)c1ccccc12 (stereo not given) | 61.4 µM (inactive) | 15.2 µM (inactive) |  | 47.8 µM (inactive) |  | > 100 µM (inactive) | > 100 µM (inactive)
6 | C/C(=N\NC(=S)N1CC2CCC(CC2)C1)c1nccs1 | 0.0423 µM (active) | 0.0201 µM (active) | 2.3 µM (inactive) | 0.288 µM (active) | 0.518 µM (active) | < 0.01 µM (active) | 0.327 µM (active)
7 | CC(C)C1=CC(=O)C(C)(C2=NC(C)(C)CO2)c2ccccc21 (stereo not given) | > 100 µM (inactive) | 94.4 µM (inactive) | > 100 µM (inactive) | > 100 µM (inactive) | 95.7 µM (inactive) | > 100 µM (inactive) | 34.6 µM (inactive)
8 | C#C[C@@H](CCCC)OC(=O)N[C@H](C)c1ccccc1 | 59.4 µM (inactive) | 43.1 µM (inactive) | 66.8 µM (inactive) | 38.5 µM (inactive) | 45.6 µM (inactive) | 51.8 µM (inactive) | > 100 µM (inactive)
9 | CCCCCCCCCCCC(=O)OCCOCCOCCOCCOCCOCc1ccccc1 | > 100 µM (inactive) | > 100 µM (inactive) |  | > 100 µM (inactive) |  | > 100 µM (inactive) | > 100 µM (inactive)
10 | CN(C)CC(/C(Cc1ccccc1)=N\NC(=S)NN)c1ccccc1 (stereo not given) | > 100 µM (inactive) | > 100 µM (inactive) | > 100 µM (inactive) | > 100 µM (inactive) |  | > 100 µM (inactive) | 
11 | Cc1nnc2c3nnc(C)n3c3ccccc3n12 | > 100 µM (inactive) | > 100 µM (inactive) | > 100 µM (inactive) |  |  | > 100 µM (inactive) | 
12 | Cc1c(Cl)ccc2c1NC(=O)C2(O)C(C(=O)c1ccccc1)c1ccccc1 (stereo not given) | 83.9 µM (inactive) | 57.3 µM (inactive) | 32.7 µM (inactive) | 14.7 µM (inactive) | 62.2 µM (inactive) | 46 µM (inactive) | 52.4 µM (inactive)
13 | COc1c(C)n(CCO)ccc1=O | > 100 µM (inactive) | > 100 µM (inactive) | > 100 µM (inactive) | > 100 µM (inactive) | > 100 µM (inactive) | > 100 µM (inactive) | 
14 | COc1ccc(N2C(=O)C3c4[nH]c5ccccc5c4C4CC(C)(C)CC(C)(C)C4C3C2=O)cc1 (stereo not given) | 27 µM (inactive) | 13.3 µM (inactive) | 17.6 µM (inactive) | 15.1 µM (inactive) |  | 29.3 µM (inactive) | 16.7 µM (inactive)
15 | Cc1ccc(NC(=O)C(=O)Cc2cccc[n+]2[O-])cc1C | > 100 µM (inactive) | > 100 µM (inactive) | > 100 µM (inactive) | > 100 µM (inactive) |  | > 100 µM (inactive) | > 100 µM (inactive)
16 | Cc1ccc(NC(=O)CCCC(=O)CC(=O)c2ccc(Br)cc2)cc1 | > 100 µM (inactive) | > 100 µM (inactive) |  | > 100 µM (inactive) | > 100 µM (inactive) | > 100 µM (inactive) | > 100 µM (inactive)
17 | CCCCCCCCCCCCCC(=O)OCC(C[As](=O)(O)O)OC(=O)CCCCCCCCCCCCC (stereo not given) | > 100 µM (inactive) | > 100 µM (inactive) | > 100 µM (inactive) |  | > 100 µM (inactive) | > 100 µM (inactive) | > 100 µM (inactive)
18 | Brc1ccc(C[P+]2(c3ccccc3)CCCCC2)cc1.[O-][Cl+3]([O-])([O-])[O-] | > 100 µM (inactive) | 25.1 µM (inactive) | < 0.01 µM (active) | 25.4 µM (inactive) |  | 61.2 µM (inactive) | > 100 µM (inactive)
19 | N#CCCN(c1ccc(/C=N/c2ccc(C(=O)O)cc2)cc1)S(=O)(=O)c1ccccc1 | > 100 µM (inactive) | > 100 µM (inactive) | > 100 µM (inactive) | > 100 µM (inactive) |  | > 100 µM (inactive) | > 100 µM (inactive)
20 | CCOC(=O)/N=c1/nc(N(C)C)ss1 | > 100 µM (inactive) | > 100 µM (inactive) | > 100 µM (inactive) |  | > 100 µM (inactive) | > 100 µM (inactive) | > 100 µM (inactive)
21 | c1cnc2c(c1)-n1cccc1C1(CCSCC1)NN2 |  |  | > 100 µM (inactive) | 48.5 µM (inactive) |  |  | 26 µM (inactive)
22 | CC(=O)Nc1ccc(S(=O)(=O)N/N=C(\C)CN2C(=O)c3ccccc3C2=O)cc1 | > 100 µM (inactive) | > 100 µM (inactive) |  | > 100 µM (inactive) |  | > 100 µM (inactive) | > 100 µM (inactive)
23 | O=C1C=C(Nc2cc(Cl)ccc2Cl)c2ccccc2C1=O | 45.3 µM (inactive) |  |  | 15.7 µM (inactive) | > 100 µM (inactive) | > 100 µM (inactive) | 22.6 µM (inactive)
24 | O=C1C=C(Nc2ccc(Cl)cc2Cl)c2ccccc2C1=O | 44.5 µM (inactive) | 27.2 µM (inactive) |  | 13.5 µM (inactive) | 34.5 µM (inactive) | > 100 µM (inactive) | 
25 | NC(=O)CCC(NC(=O)C(F)(F)F)C(=O)O (stereo not given) | > 100 µM (inactive) | > 100 µM (inactive) | > 100 µM (inactive) | > 100 µM (inactive) |  | > 100 µM (inactive) | > 100 µM (inactive)
26 | CC(C)C(=O)NC(=S)Nc1ccc([N+](=O)[O-])cc1C#N | > 100 µM (inactive) | > 100 µM (inactive) | > 100 µM (inactive) | > 100 µM (inactive) | 99.1 µM (inactive) | > 100 µM (inactive) | > 100 µM (inactive)
